Experimental data taken from patent US20190135834A1, “5-SUBSTITUTED AZABENZIMIDAZOLE DERIVATIVE HAVING ???? ACTIVATION ACTION” (Shionogi & Co., Ltd., priority 2016, published 2019).

Molecular target: T1, Human AMPK α2ß2γ1 (Homo sapiens, UniProt O43741+P54646)
T1 construct: The full length cDNAs of human AMPK ß2 (NM_005399.3) and human AMPK α2 (NM_006252.3); The full length cDNAs of human AMPK ß2 (NM_005399.3); 6xHis (N); made in house; host or cells: Escherichia coli BL21 CodonPlus (DE3)-RIL
Experiment: Test Example 2: evaluation of an activator for AMP-activated protein kinase (AMPK), LabChip mobility shift assay with CaMKK2-phosphorylated enzyme
Format: biochemical
Details: for EC150 (compound concentration showing 150% relative to the control (100%)): FL-Peptide 7 substrate, 25° C., 2 hours; for Emax: read-out: Emax (maximum rate of increase in activity within the measurement range)
Method: The full length cDNAs of human AMPK ß2 (NM_005399.3) and human AMPK α2 (NM_006252.3) were inserted into the MCS1 and MCS2 of the pETDuet-1 vector to prepare a human AMPK ß2 and human AMPK α2 (6× His tag at the 5′ terminus) expressing plasmid. The plasmid was cotransfected with an expression plasmid, in which the full length cDNA of human AMPK γ1 (NM_002733.3) had been inserted into pET28b(+), into BL21 CodonPlus (DE3)-RIL to obtain an expression strain. The expression strain was cultured in TB medium, followed by induction with 0.5 mM IPTG, and cultured at 25° C. for 3 hours and then harvested. After ultrasonication, supernatant was collected and applied to Histrap FF column (GE) and RESOURCE Q column (GE) to prepare 12.5 mg of purified sample containing three types of subunit from 1.8 L of broth.
Preparation method of human CaMKK2 used to impart activity to AMPK An expression vector, in which the full length cDNA of human CAMKK ß (NM_172226.1) had been inserted into pGEX-6P-3, was transfected into BL21 Star (DE3). The expression strain was cultured in TB medium, followed by induction with 0.5 mM IPTG, and cultured at 25° C. for 3 hours and then harvested. After ultrasonication, supernatant was collected and applied to GSTrap FF column (GE) to prepare 14 mg of GST-fused CAMKK ß from 720 ml of broth.
Thus, phosphorylation treatment was carried out as pretreatment.
Human AMPK α2ß2γ1 in an amount to give a conversion rate of approximately 10% by reaction for 2 hours, and CaMKK2 in an amount capable of sufficiently imparting activity to AMPK for one hour were mixed in a buffer solution consisting of a 50 mM HEPES-NaOH buffer solution (pH 7.0), 100 mM NaCl, 5 mM magnesium chloride, 0.1% bovine serum albumin, 0.2 mM sodium orthovanadate(V), 1 mM ethylene glycol-bis(2-aminoethyl ether)-N,N,N′,N′-tetraacetic acid (EGTA), 5 mM disodium ß-glycerophosphate, 1 mM dithiothreitol and 0.2 mM ATP, and the resulting liquid was left to stand at 25° C. for 1 to 1.5 hours to sufficiently phosphorylate AMPK.
After that, to the enzyme liquid, which had been subjected to phosphorylation treatment, a compound dissolved in DMSO was added so as to have a 1% DMSO concentration. The resulting liquid was left to stand for 10 minutes.
To the liquid, a substrate solution consisting of a 50 mM HEPES-NaOH buffer solution (pH 7.0), 100 mM NaCl, 10 mM magnesium chloride, 0.1% bovine serum albumin, 0.2 mM sodium orthovanadate(V), 1 mM ethylene glycol-bis(2-aminoethyl ether)-N,N,N′,N′-tetraacetic acid (EGTA), 5 mM disodium ß-glycerophosphate, 2 mM dithiothreitol, 0.4 mM ATP and 3 μM FL-Peptide 7 (manufactured by Caliper Life Sciences, Inc.) was added in equal amount (10 μl in total). The resulting liquid was allowed to react at 25° C. for 2 hours, and 10 μl of 20 mM EDTA was added thereto to stop the reaction.
To detect phosphorylated fluorescent substrates, the reaction mixture was applied to a measuring device, LabChip EZ Reader II manufactured by Caliper Life Science, Inc., for detecting fluorescence by using differences in mobility due to differences in charge. The setting conditions for the device were pressure, −1.5 PSI; upstream voltage, −2250 V; downstream voltage, −400 V; post sample buffer sip time, 40 seconds; final delay, 120 seconds; and peak order, Product First.
A conversion rate was calculated from the peak heights of the obtained substrate and product. The conversion rate when not containing a compound was used as a control, and a concentration dependent curve was made by plotting the rate of increase in activity to the control at each concentration of a compound.

T1 sequence (P54646 whole entry): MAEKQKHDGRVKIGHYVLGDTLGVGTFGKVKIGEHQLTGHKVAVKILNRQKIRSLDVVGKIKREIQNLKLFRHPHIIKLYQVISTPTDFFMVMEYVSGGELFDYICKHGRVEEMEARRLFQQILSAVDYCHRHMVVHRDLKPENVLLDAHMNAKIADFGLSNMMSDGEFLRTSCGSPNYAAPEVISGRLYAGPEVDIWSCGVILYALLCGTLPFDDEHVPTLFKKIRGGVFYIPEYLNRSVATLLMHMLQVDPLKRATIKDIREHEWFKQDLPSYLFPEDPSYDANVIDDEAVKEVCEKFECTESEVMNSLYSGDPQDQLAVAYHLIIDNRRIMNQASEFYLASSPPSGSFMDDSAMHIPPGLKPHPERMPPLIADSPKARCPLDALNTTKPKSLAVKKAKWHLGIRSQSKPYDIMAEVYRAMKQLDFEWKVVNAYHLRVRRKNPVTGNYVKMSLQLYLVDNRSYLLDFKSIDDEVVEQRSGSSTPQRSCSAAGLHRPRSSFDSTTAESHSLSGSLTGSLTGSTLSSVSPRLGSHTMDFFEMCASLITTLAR
T1 sequence (O43741 whole entry): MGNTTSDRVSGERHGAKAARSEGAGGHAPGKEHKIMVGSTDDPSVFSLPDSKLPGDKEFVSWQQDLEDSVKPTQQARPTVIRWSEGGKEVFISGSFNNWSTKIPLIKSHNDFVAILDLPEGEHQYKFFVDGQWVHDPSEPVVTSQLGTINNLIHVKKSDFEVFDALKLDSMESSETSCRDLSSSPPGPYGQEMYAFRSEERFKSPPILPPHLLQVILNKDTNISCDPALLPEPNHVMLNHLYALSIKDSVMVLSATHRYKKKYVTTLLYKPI
T1 sequence (P54619 whole entry partner): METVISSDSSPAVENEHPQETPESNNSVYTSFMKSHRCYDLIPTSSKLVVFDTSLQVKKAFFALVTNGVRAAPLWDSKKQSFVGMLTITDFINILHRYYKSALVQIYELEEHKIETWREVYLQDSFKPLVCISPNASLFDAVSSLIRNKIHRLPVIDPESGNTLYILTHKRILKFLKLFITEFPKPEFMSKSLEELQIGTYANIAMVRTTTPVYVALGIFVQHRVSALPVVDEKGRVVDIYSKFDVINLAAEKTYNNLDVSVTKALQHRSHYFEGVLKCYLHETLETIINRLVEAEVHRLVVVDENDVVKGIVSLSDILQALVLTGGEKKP

SMILES	EC150 (compound concentration showing 150% relative to the control (100%))	Emax (relative to control (100%))	Emax (maximum rate of increase in activity within the measurement range) (relative to control (100%))
Cn1nccc1-c1cc(F)c2c(c1)CCC2Nc1nc2nc(O[C@@H]3CO[C@H]4[C@@H]3OC[C@H]4O)[nH]c2cc1Cl (stereo partly shown) [Compound I-2-23]	12 nM	709%	
COc1ccc(-c2cc(F)c3c(c2)CCC3Nc2nc3nc(O[C@@H]4CO[C@H]5[C@@H]4OC[C@H]5O)[nH]c3cc2Cl)cn1 (stereo partly shown) [Compound I-2-26]	7.1 nM		669%
O=S(=O)(NCCOc1cc(F)c2c(c1)CCC2Nc1nc2nc(O[C@@H]3CO[C@H]4[C@@H]3OC[C@H]4O)[nH]c2cc1Cl)C(F)F (stereo partly shown) [Compound I-2-32]	9 nM	714%	
COCC(=O)NCCOc1cc(F)c2c(c1)CCC2Nc1nc2nc(O[C@@H]3CO[C@H]4[C@@H]3OC[C@H]4O)[nH]c2cc1Cl (stereo partly shown) [Compound I-2-33]	3 nM	704%	
O=C(NCCOc1cc(F)c2c(c1)CCC2Nc1nc2nc(O[C@@H]3CO[C@H]4[C@@H]3OC[C@H]4O)[nH]c2cc1Cl)C1CCC1 (stereo partly shown) [Compound I-2-34]	6.6 nM	719%	
CS(=O)(=O)NCCOc1cc(F)c2c(c1)CCC2Nc1nc2nc(O[C@@H]3CO[C@H]4[C@@H]3OC[C@@H]4F)[nH]c2cc1Cl (stereo partly shown) [Compound I-2-35]	10 nM	679%	
CC(C)OCCOc1cc(F)c2c(c1)CCC2Nc1nc2nc(O[C@@H]3CO[C@H]4[C@@H]3OC[C@H]4O)[nH]c2cc1Cl (stereo partly shown) [Compound I-2-36]	3.9 nM	698%	
CC(C)(O)/C=C/c1cc(F)c2c(c1)CCC2Nc1nc2nc(O[C@@H]3CO[C@H]4[C@@H]3OC[C@H]4O)[nH]c2cc1Cl (stereo partly shown) [Compound I-2-37]	3.2 nM	645%	
OC1CC=C(c2cc(F)c3c(c2)CCC3Nc2nc3nc(O[C@@H]4CO[C@H]5[C@@H]4OC[C@H]5O)[nH]c3cc2Cl)CC1 (stereo partly shown) [Compound I-2-38]	3.1 nM	725%	
O[C@@H]1CO[C@H]2[C@@H]1OC[C@H]2Oc1nc2nc(N[C@H]3CCc4cc(/C=C/COC5CCCCO5)cc(F)c43)c(Cl)cc2[nH]1 (stereo partly shown) [Compound I-2-39]	11 nM	583%	
O[C@@H]1CO[C@H]2[C@@H]1OC[C@H]2Oc1nc2nc(NC3CCc4cc(OCCOC5CC5)cc(F)c43)c(Cl)cc2[nH]1 (stereo partly shown) [Compound I-2-40]	4.1 nM	604%	
O[C@@H]1CO[C@H]2[C@@H]1OC[C@H]2Oc1nc2nc(NC3CCc4cc(OCCOC5CCC5)cc(F)c43)c(Cl)cc2[nH]1 (stereo partly shown) [Compound I-2-41]	10 nM	604%	
O[C@@H]1CO[C@H]2[C@@H]1OC[C@H]2Oc1nc2nc(NC3CCc4cc(OCCOC5CCCC5)cc(F)c43)c(Cl)cc2[nH]1 (stereo partly shown) [Compound I-2-42]	9.1 nM	600%	
CC(C)(C)OCCOc1cc(F)c2c(c1)CCC2Nc1nc2nc(O[C@@H]3CO[C@H]4[C@@H]3OC[C@H]4O)[nH]c2cc1Cl (stereo partly shown) [Compound I-2-43]	31 nM	612%	
COCOCCOc1cc(F)c2c(c1)CCC2Nc1nc2nc(O[C@@H]3CO[C@H]4[C@@H]3OC[C@H]4O)[nH]c2cc1Cl (stereo partly shown) [Compound I-2-44]	3.8 nM	595%	
Cc1cc(-c2cc(F)c3c(c2)CC[C@@H]3Nc2nc3nc(O[C@@H]4CO[C@H]5[C@@H]4OC[C@H]5O)[nH]c3cc2Cl)cnn1 [Compound I-2-45]	2.1 nM	711%	
Cc1ncc(-c2cc(F)c3c(c2)CC[C@@H]3Nc2nc3nc(O[C@@H]4CO[C@H]5[C@@H]4OC[C@H]5O)[nH]c3cc2Cl)cn1 [Compound I-2-46]	3.3 nM	708%	
O[C@@H]1CO[C@H]2[C@@H]1OC[C@H]2Oc1nc2nc(N[C@H]3CCc4cc(C5=CCOC5)cc(F)c43)c(Cl)cc2[nH]1 [Compound I-2-47]	2.3 nM	724%	
CC(C)n1cc(-c2cc(F)c3c(c2)CC[C@@H]3Nc2nc3nc(O[C@@H]4CO[C@H]5[C@@H]4OC[C@H]5O)[nH]c3cc2Cl)ccc1=O [Compound I-2-48]	6.2 nM	737%	
O[C@@H]1CO[C@H]2[C@@H]1OC[C@H]2Oc1nc2nc(NC3CCc4cc(O[C@@H]5CCOC5)cc(F)c43)c(Cl)cc2[nH]1 (stereo partly shown) [Compound I-2-49]	3.4 nM	667%	
O[C@@H]1CO[C@H]2[C@@H]1OC[C@H]2Oc1nc2nc(NC3CCc4cc(O[C@H]5CCOC5)cc(F)c43)c(Cl)cc2[nH]1 (stereo partly shown) [Compound I-2-50]	1.9 nM	678%	
O[C@@H]1CO[C@H]2[C@@H]1OC[C@H]2Oc1nc2nc(NC3CCc4cc(OC5COC5)cc(F)c43)c(Cl)cc2[nH]1 (stereo partly shown) [Compound I-2-51]	4.7 nM	688%	
COCCCOc1cc(F)c2c(c1)CCC2Nc1nc2nc(O[C@@H]3CO[C@H]4[C@@H]3OC[C@H]4O)[nH]c2cc1Cl (stereo partly shown) [Compound I-2-52]	3.7 nM	629%	
O[C@@H]1CO[C@H]2[C@@H]1OC[C@H]2Oc1nc2nc(NC3CCc4cc(OCC5COC5)cc(F)c43)c(Cl)cc2[nH]1 (stereo partly shown) [Compound I-2-53]	4 nM	637%	
CC1(COc2cc(F)c3c(c2)CCC3Nc2nc3nc(O[C@@H]4CO[C@H]5[C@@H]4OC[C@H]5O)[nH]c3cc2Cl)COC1 (stereo partly shown) [Compound I-2-54]	1.5 nM	643%	
CS(=O)(=O)CCCOc1cc(F)c2c(c1)CCC2Nc1nc2nc(O[C@@H]3CO[C@H]4[C@@H]3OC[C@H]4O)[nH]c2cc1Cl (stereo partly shown) [Compound I-2-55]	3.6 nM	637%	
COc1ncc(-c2cc(F)c3c(c2)CC[C@@H]3Nc2nc3nc(O[C@@H]4CO[C@H]5[C@@H]4OC[C@H]5O)[nH]c3cc2Cl)cn1 [Compound I-2-56]	0.81 nM	681%	
O[C@@H]1CO[C@H]2[C@@H]1OC[C@H]2Oc1nc2nc(N[C@H]3CCc4cc(-c5cnc(C6CC6)nc5)cc(F)c43)c(Cl)cc2[nH]1 [Compound I-2-57]	11 nM	636%	
O[C@@H]1CO[C@H]2[C@@H]1OC[C@H]2Oc1nc2nc(NC3CCc4cc(OCCOCC(F)F)cc(F)c43)c(Cl)cc2[nH]1 (stereo partly shown) [Compound I-2-59]	4.5 nM	634%	
